Measurements reported in patent publication US9018260B2, “Indanesulfamide derivatives” (Eisai R&D Management Co., Ltd., priority 2012, dated 2015).

Key:
[1] = test system: corneal kindled male C57Bl/6 mice; assay: Mouse corneal kindling model; assay type: in vivo; details: for ED50: Mus musculus, dosage where 50% of animals showed seizure severity score 2 or less; for Seizure severity score (Average): Racine's scale
From the text: Male C57Bl/6 mice were stimulated twice daily for 10 days. The electric-stimulations with current intensities of 4.0 mA and duration of 3 s (pulse frequency 50 Hz) were applied via corneally placed saline-soaked copper electrodes.
Seizure severity was ranked according to a modified scoring system of the Racine's scale (Clin. Neurophysiol. 1972:32:281-294): Score 1, mild facial clonus and eye blinking; 2, severe facial clonus, head nodding, chewing; 3, unilateral or alternating forelimb clonus; 4, bilateral forelimb clonus with rearing; 5, bilateral forelimb clonus with rearing and falling; 6, tonic fore- and/or hindlimb extension. The fully kindled animals with the severity score 4 or more were used for evaluation.
Test compounds were dissolved in the vehicle (0.45% methyl cellulose/4.5% cremophor/10% DMSO), then orally (p.o.) or intraperitoneally (i.p.) administered to mice. The vehicle was orally administered as controls.
Electric stimulation was applied at 1 hour after p.o. or 20 minutes after i.p administration. Stimulation parameters were the same as during the kindling process. After electric stimulation, seizure severity was recorded for 30 seconds according to the Racine's scale.
Four to ten animals were used for calculation of average seizure severity score at each dose.

Rota rod test [2] = assay type: in vivo, mouse; details: male, ddY, mouse, in vivo, po; dose at which fall off latency shorten by 50% of vehicle control value
Procedure: (§1) Rotarod apparatus (Rota-rod MK-660C, Muromachi-Kikai Co., Ltd.) was used for measurement. The motor was turned on and the rod rotation was continuously accelerated to a rate of 40 rpm over 180 sec.
(§2) Male ddY mice at an age of 5 weeks (Japan SLC) were used. On the experiment day, the mice were pretrained and only the animals able to remain on the rod for at least 60 s were selected for experiment.
(§3) Test compounds were dissolved in the vehicle (0.45% methyl cellulose/4.5% cremophor/10% dimethyl sulfoxide), then orally (p.o.) administered to mice. The vehicle was orally administered as controls. The effects of compounds were studied in groups of six to ten animals.
(§4) Latency for mice to fall off from the rod was measured. The toxic dose at which fall off latency shorten by 50% of vehicle control value (TD50) was calculated.
(§5) Therapeutic index were calculated by dividing the respective TD50 value in rota rod test by the ED50 value determined in the corneal kindling model.

male ddY mice [3] = assay: Rota rod test; assay type: in vivo, mouse; details: route p.o.; TD50 in rota rod test divided by ED50 in corneal kindling model
Procedure: as §1, §2, §3, §4, §5

[4] = test system: amygdala kindled male Wistar Kyoto rats; assay: Rat amygdala kindling model; assay type: in vivo; details: oral, 60 minutes after administration; FIGS. 1 to 3
Procedure: Male Wistar Kyoto rats (Charles River Japan) were used for the experiment. For implantation of kindling electrodes, rats were anesthetized with pentobarbital (65 mg/kg i.p.) and a tripolar electrode was implanted into the right hemisphere aimed at the basolateral amygdala using the coordinates derived from the atlas of Paxinos and Watson. Electrical stimulation of the amygdala was initiated following a recovery period of one week after surgery. […]
The threshold for induction of amygdala after discharges (ADT), i.e., epileptiform spikes on electroencephalogram (EEG), was measured for anti-seizure potency of compounds. In fully kindled rats, the ADT was determined by administering a series of stimulations beginning at […] and increasing in steps of about 25% of the previous current. […]
In the afternoon, test compounds were dissolved in the vehicle (a 1:1:1 mixture of polyethylene glycol 200, distilled water and DMSO), then orally administered to rats. […] The ADT was determined again 60 minutes after administration of drugs. The % of pre-value (morning results) was determined for each rat. Results were expressed as mean±SEM and analyzed by Dunnett's multiple comparisons test. […]

Rota rod test [5] = assay type: in vivo, mouse; details: male, ddY, mouse, in vivo, intraperitoneal; route i.p; dose at which fall off latency shorten by 50% of vehicle control value
male ddY mice [6] = assay: Rota rod test; assay type: in vivo, mouse; details: route i.p; TD50 in rota rod test divided by ED50 in corneal kindling model
[7] = dose 10 mg/kg, p.o., stimulation 1 hour after administration
[8] = dose 25 mg/kg, p.o., stimulation 1 hour after administration
[9] = dose 50 mg/kg, p.o., stimulation 1 hour after administration
[10] = dose 10 mg/kg, i.p., stimulation 20 minutes after administration
[11] = dose 25 mg/kg, i.p., stimulation 20 minutes after administration

NS(=O)(=O)NC1c2c(ccc(F)c2F)CC1(F)F (single isomer, unassigned; (-)) [Example 5, (−)-N-(2,2,6,7-tetrafluoro-2,3-dihydro-1H-inden-1-yl)sulfamide]
ED50 ([1]; po): 5.7 mg/kg
Seizure severity score (Average) [1, 7]: 2
Seizure severity score (Average) [1, 8]: 0
TD50 (Rota rod test [2]): 404 mg/kg
Therapeutic index (male ddY mice [3]): 70.9

NS(=O)(=O)NC1c2c(Cl)cc(F)cc2CC1(F)F (single isomer, unassigned; (-)) [Example 6, (−)-N-(7-chloro-2,2,5-trifluoro-2,3-dihydro-1H-inden-1-yl)sulfamide]
ED50 ([1]; po): 10.2 mg/kg
Seizure severity score (Average) [1, 7]: 1
Seizure severity score (Average) [1, 8]: 0
Seizure severity score (Average) [1, 9]: 0.25
after-discharge threshold (ADT), % of pre-value [4]: dose-dependent elevation of after-discharge threshold
TD50 (Rota rod test [2]): 307 mg/kg
Therapeutic index (male ddY mice [3]): 30.1

NS(=O)(=O)NC1c2c(Cl)cccc2CC1(F)F (single isomer, unassigned; (-)) [Example 8, (−)-N-(7-chloro-2,2-difluoro-2,3-dihydro-1H-inden-1-yl)sulfamide]
ED50 ([1]; ip, route i.p): 10.6 mg/kg
Seizure severity score (Average) [1, 10]: 3
Seizure severity score (Average) [1, 11]: 0
TD50 (Rota rod test [5]): 119 mg/kg
Therapeutic index (male ddY mice [6]): 11.2

NS(=O)(=O)NC1CCc2c(F)cc(F)c(F)c21 (single isomer, unassigned; (-)) [Example 29, (−)-N-(4,6,7-trifluoro-2,3-dihydro-1H-inden-1-yl)sulfamide]
ED50 ([1]; po): 15.8 mg/kg
Seizure severity score (Average) [1, 7]: 3.5
Seizure severity score (Average) [1, 8]: 0.83
Seizure severity score (Average) [1, 9]: 0
TD50 (Rota rod test [2]): 157 mg/kg
Therapeutic index (male ddY mice [3]): 9.93

NS(=O)(=O)N[C@H]1c2c(F)cc(F)cc2CC1(F)F [Example 1, N-[(1S)-2,2,5,7-tetrafluoro-2,3-dihydro-1H-inden-1-yl]sulfamide]
ED50 ([1]; po): 7.9 mg/kg
Seizure severity score (Average) [1, 7]: 2
Seizure severity score (Average) [1, 8]: 0
Seizure severity score (Average) [1, 9]: 0
TD50 (Rota rod test [2]): 390 mg/kg
Therapeutic index (male ddY mice [3]): 49.4

NS(=O)(=O)N[C@H]1c2c(F)ccc(F)c2CC1(F)F [Example 2, N-[(1S)-2,2,4,7-tetrafluoro-2,3-dihydro-1H-inden-1-yl]sulfamide]
ED50 ([1]; po): 15.4 mg/kg
Seizure severity score (Average) [1, 7]: 4
Seizure severity score (Average) [1, 8]: 0
Seizure severity score (Average) [1, 9]: 0
TD50 (Rota rod test [2]): > 200 mg/kg
Therapeutic index (male ddY mice [3]): >13.0

Cc1cccc2c1[C@H](NS(N)(=O)=O)C(F)(F)C2 [Example 11, N-[(1S)-2,2-Difluoro-7-methyl-2,3-dihydro-1H-inden-1-yl]sulfamide]
ED50 ([1]; po): 5 mg/kg
Seizure severity score (Average) [1, 7]: 0.5
Seizure severity score (Average) [1, 8]: 0
after-discharge threshold (ADT), % of pre-value [4]: dose-dependent elevation of after-discharge threshold
TD50 (Rota rod test [2]): 132 mg/kg
Therapeutic index (male ddY mice [3]): 26.4

Cc1cc(F)cc2c1[C@H](NS(N)(=O)=O)C(F)(F)C2 [Example 12, N-[(1S)-2,2,5-Trifluoro-7-methyl-2,3-dihydro-1H-inden-1-yl]sulfamide]
ED50 ([1]; po): 5.6 mg/kg
Seizure severity score (Average) [1, 7]: 0
Seizure severity score (Average) [1, 8]: 0
TD50 (Rota rod test [2]): 143 mg/kg
Therapeutic index (male ddY mice [3]): 25.5

NS(=O)(=O)N[C@H]1CCc2c(F)ccc(F)c21 [Example 19, N-[(1S)-4,7-difluoro-2,3-dihydro-1H-inden-1-yl]sulfamide]
ED50 ([1]; po): 12.4 mg/kg
Seizure severity score (Average) [1, 7]: 2
Seizure severity score (Average) [1, 8]: 0
TD50 (Rota rod test [2]): 235 mg/kg
Therapeutic index (male ddY mice [3]): 19.0

NS(=O)(=O)N[C@H]1CCc2cc(F)cc(Cl)c21 [Example 21, N-[(1S)-7-chloro-5-fluoro-2,3-dihydro-1H-inden-1-yl]sulfamide]
ED50 ([1]; po): 10.6 mg/kg
Seizure severity score (Average) [1, 10]: 4.25
Seizure severity score (Average) [1, 11]: 2
TD50 (Rota rod test [2]): 234 mg/kg
Therapeutic index (male ddY mice [3]): 22.1

NS(=O)(=O)NC1CCc2ccccc21 (centres unmarked) [Reference compound, reference compound]
ED50 ([1]; po): 40 mg/kg
Seizure severity score (Average) [1, 7]: 4.67
Seizure severity score (Average) [1, 8]: 3.17
Seizure severity score (Average) [1, 9]: 1.33
TD50 (Rota rod test [2]): 211 mg/kg
Therapeutic index (male ddY mice [3]): 5.27
